Blank lines part the entries; values can stand above or below the compound they belong to.
Assays:
[1] = Reaction of 1,2,4-thiadiazolo[4,5-a]benzimidazole derivative with 2-mercaptoethanol, determination of t1/2 values; conditions: compound 5×10^-3 M, 2-mercaptoethanol 1.15×10^-2 M, methanol, R.T., HPLC; 5000 µM
Procedure: The column is eluted with 70% 50 mM ammonium acetate; 30% acetonitrile as the mobile phase.
Percentage reaction completion was calculated as follows:
At time 0, 100% starting material remained unreacted.
At time t, % of unreacted starting material={hsample /hint.std at
time t}/{hsample /hint.std at time O}*100%.

[2] = Acid stability in 6 molar hydrochloric acid; format: physicochemical; conditions: minimum methanol, room temperature
Procedure: To examine acid stability of the captioned compound, the compound was dissolved in a minimum volume of methanol and the resulting solution was added to a 6 molar solution of hydrochloric acid.

[3] = Reaction with phenethyl mercaptan in methanol (chemical model of proton pump thiol reactivity); conditions: for time after which reaction with phenethyl mercaptan is complete / conversion to 2-mercaptobenzimidazole on reaction with phenethyl mercaptan: methanol
Text: A useful in vitro model for obtaining an indication of the reactivity of thiadiazole compound towards the proton pump enzyme for deactivation thereof is provided by the reactivity of the thiadiazole compound towards phenethylmercaptan. The chemical mechanism of this process, as applied to the thiadiazolobenzimidazole compounds of the present invention, is diagrammatically illustrated on FIG. 3 of the accompanying drawings. The first stage of reaction forms a disulfide compound by cleavage of the S--N bond of the thiadiazole ring. This disulfide X cannot be isolated, since it reacts very rapidly with a second mercaptan group to give the disulfide of phenethylmercaptan and intermediate XI. In connection with the actual enzyme, the second step involving attack of another thiol group would not happen because of steric factors inhibiting the approach of two enzymes, or would lead to the formation of a disulfide bond in the event that another proximal thiol group is present. In both cases, this would lead to the inhibition of the enzyme. In some cases, intermediate XI further degrades to 2-mercaptobenzimidazole VIII or 1-cyano-2-mercaptobenzimidazole XII. A similar mechanism is followed by the imidazothiadiazoles of the present invention. Further description and discussion of this reaction and test method is included in the specific example section hereof.
To a solution of 23 mg of 3-(dimethylamino)-1,2,4-thiadiazolo[4,5-a]benzimidazole in 10 mL of methanol was added 360 μL of phenethyl mercaptan. After 1 min, the reaction is complete. The solvent was evaporated and the crude material was purified by chromatography to give 15 mg of N^1, N^1 -dimethyl-2-mercapto-1-benzimidazolylamidine: ^1 H NMR (DMSO-d6) δ 7.3-7.0 (m, 4H, 4×ArH), 3.35 (br s, 2H, NH, SH), 2.88 (s, 6H, 2×NCH3) ppm; IR (KBr) .nu. 3210, 1641, 1475, 1452, 1407, 1319 cm^-1; MS m/z 220 (M+), 150 (M^+ -Me2 NC=NH).
To a solution of 23 mg of 3-methoxy-1,2,4-thiadiazolo [4,5-a]benzimidazole in 10 mL of methanol was added 376 μL of phenethyl mercaptan. After 1 min, the reaction is complete. The methyl 2-mercapto-1-benzimidazolecarboximidate was identified as the major reaction product of the reaction: ^1 H NMR (DMSO-d6) δ 13.45 (br s, 1H, SH or NH), 9.8 (s, 1H, NH or SH), 7.7 (d, 1H, J=8 Hz, ArH), 7.35-7.2 (m, 3H, 3×ArH), 3.95 (s, 3H, OCH3) ppm; IR (KBr) .nu. 3437, 3095, 1679, 1450, 1440, 1376, 1193, 735 cm^-1; MS m/z=207 (M^+), 150 (M^+ -MeOC=NH)
To a suspension of 26 mg of 3-(oxophenylmethyl)-1,2,4-thiadiazolo[4,5-a]benzimidazole in 10 mL methanol was added 31 μL of phenethyl mercaptan.
To a suspension of 25 mg of 3-[hydroxy(4-methoxy-3,5-dimethyl-2-pyridyl)methyl]-1,2,4-thiadiazolo[4,5- a]benzimidazole in 10 mL methanol was added 250 μL of phenethyl mercaptan.
To a suspension of 31 mg of 3-[(4-methylphenyl) sulfonyl]-1,2,4-thiadiazolo[4,5-a]benzimidazole in 10 mL methanol was added 313 μL of phenethyl mercaptan.
Phenethyl mercaptan (120 μL, 0.90 mmol) was added to a suspension of 3-[(4-4-methoxy-3,5-dimethyl-2-pyridyl) oxomethyl]-1,2,4-thiadiazolo[4,5-a]benzimidazole (300 mg, 0.887 mmol) in methanol (150 ml) and 0.1 M hydrochloric acid (38 mL). After stirring the mixture at room temperature for 51 h, the mixture was neutralized to pH 6 with aqueous sodium bicarbonate and extracted with ethyl ether. The ether layer was dried on sodium sulfate and evaporated.

[4] = test system: cAMP stimulated acid secretion, mouse gastric glands; assay: cAMP stimulated acid secretion (14C-aminopyrine accumulation) in isolated mouse gastric glands; format: cell-based; conditions: 100 μM, 60 min, 37° C.
Procedure: (§1) Acid secretion is measured indirectly by the accumulation of the weak base ^14 C-aminopyrine in the isolated murine gastric glands of mouse. The assay is performed in polypropylene eppendorf tubes containing 0.5 mL of resuspended mouse gastric glands. In addition, tubes contain the tested drug, acid secretagogues (e.g. histamine, di-butyryl cyclic AMP (cAMP), carbachol) and ^14 C-aminopyrine. Tubes are incubated for 60 min. at 37° C. and continuously rotated. The reaction is stopped by centrifugation of the gland suspension for five min. at 1500 g. Supernatant is aspirated leaving the pellet containing intact gastric glands. The pellet is washed extensively and digested overnight in 1 mL of Protosol (Amersham). After neutralisation with acetic acid and addition of scintillation fluid, the radioactivity is counted in a beta-counter (Beckman). The amount of radioactivity trapped in the pellet corresponds directly with the amount of acid being secreted. Each experimental point is done in triplicate. In each experiment, energy independent consumption was estimated with 0.1 mM of dinitrophenol and basal acid secretion in the absence of acid stimulants. These values were then subtracted from corresponding results in order to calculate basal or secretagogue stimulated acid secretion. […] Each experiment is repeated a number of times and all results are expressed as a % of the maximum stimulation.

[5] = test system: histamine stimulated acid secretion, mouse gastric glands; assay: Histamine stimulated acid secretion (14C-aminopyrine accumulation) in isolated mouse gastric glands; format: cell-based; conditions: 100 μM, 60 min, 37° C.
Procedure: as §1

[6] = test system: gastric acid secretion, mouse gastric glands; assay: In vitro inhibition of gastric acid secretion (14C-aminopyrine accumulation) in isolated mouse gastric glands, secretagogue not stated; format: cell-based; conditions: 1 h, 60 min, 37° C., read-out: ED50 (the source's name)
[7] = test system: gastric acid secretion; assay: Meal (8% peptone)-stimulated gastric acid secretion in rats; format: in vivo, Sprague-Dawley rats; conditions: rat, oral gavage, 300 μmol/kg
Procedure: Fasted, adult (140-240 g), male, Sprague-Dawley rats were fasted for 24 h from food, but not water, and then treated by oral gavage with 1 to 1.5 mL total volume of compound of Formula I (300 μmmol/Kg) on different days. Two hours later, rats were anesthetized with a combination of pentobartital and thiopental, the abdomen was opened and the pylorus was ligated, and tracheal, gastric, and peripheral venous canulas were placed. The stomachs were lavaged with 10 mL 0.9% saline every 10 min. for 30 min and the gastric effluent collected in receptacles to determine the basal acid secretion. Acid output was determined in each gastric effluent sample by back-titration to pH 7.0 using 0.02M NaOH. Then, 5 mL of an 8% peptone meal (pH 5.5) was instilled into the stomachs, mixed, and drained after 10 min each time for 2 hours. Acid output was determined in each gastric effluent containing the peptone meal by back-titration to pH 5.5 using 0.02 M NaOH.

[8] = test system: gastric acid secretion; assay: Histamine-stimulated gastric acid secretion in anesthetized rats (dose-dependent study); format: in vivo, Sprague-Dawley rats; conditions: rat, oral gavage, at 3, 30, 300 μmol/kg doses; histamine 5 mg/kg i.v. infusion 2 h
Procedure: Fasted, adult (140-240 g), male, Sprague-Dawley rats were fasted for 24 h from food, but not water, and then treated by oral gavage with 1 to 1.5 mL total volume of 4 different doses (0.3, 3, 30, and 300 μmol/kg) of each compound on different days. Two hours later, rats were anesthetized with a combination of pentobartital and thiopental, the abdomen was opened and the pylorus was ligated, and tracheal, gastric, and peripheral venous canulas were placed. The stomachs were lavaged with 10 mL 0.9% saline every 10 min. for 30 min and the gastric effluent collected in receptacles. Acid output was determined in each gastric effluent sample by back-titration to pH 7.0 using 0.02M NaOH. Then, 5 mL of an 8% peptone meal (pH 5.5) was instilled into the stomachs, mixed, and drained after 10 min each time for 2 hours. Acid output was determined in each gastric effluent sample by back-titration to pH 7.0 using 0.02 M NaOH. After measuring basal acid output for at least 30 minutes, acid output was then measured during a 2 h intravenous infusion of histamine (5 mg/kg).

[9] = Solubility in water; format: physicochemical
[10] = test system: gastric acid secretion; assay: Suppression of gastric acid secretion in animal model; format: in vivo

SMILES: COc1nsc2nc3ccccc3n12 [MeO, 3-methoxy-1,2,4-thiadiazolo[4,5-a]benzimidazole]
- time after which reaction with phenethyl mercaptan is complete [3]: ≤ 1 min
- t1/2 at pH = 7.0 [1]: 0.31 h

SMILES: c1ccc(-c2nsc3nc4ccccc4n23)nc1 [Example 2-pyridyl, 3-(2-pyridyl)-1,2,4-thiadiazolo[4,5-a]benzimidazole]
- t1/2 at pH = 7.0 [1]: 134 h

SMILES: c1ccc(-c2nsc3nc4ccccc4n23)cc1 [phenyl]
- t1/2 at pH = 7.0 [1]: 45 h

SMILES: Cc1nsc2nc3ccccc3n12 [methyl, 3-methyl-1,2,4-thiadiazolo[4,5-a]benzimidazole]
- t1/2 at pH = 7.0 [1]: 59 h

SMILES: O=C(c1ccccc1)c1nsc2nc3ccccc3n12 [3-(oxophenylmethyl)-1,2,4-thiadiazolo[4,5-a]benzimidazole]
- conversion to 2-mercaptobenzimidazole on reaction with phenethyl mercaptan [3]: complete conversion

SMILES: COc1c(C)cnc(C(O)c2nsc3nc4ccccc4n23)c1C (stereo not shown) [3-[hydroxy(4-methoxy-3,5-dimethyl-2-pyridyl)methyl]-1,2,4-thiadiazolo[4,5-a]benzimidazole]
- conversion to 2-mercaptobenzimidazole on reaction with phenethyl mercaptan [3]: complete conversion

SMILES: Cc1ccc(S(=O)(=O)c2nsc3nc4ccccc4n23)cc1 [3-[(4-methylphenyl)sulfonyl]-1,2,4-thiadiazolo[4,5-a]benzimidazole]
- conversion to 2-mercaptobenzimidazole on reaction with phenethyl mercaptan [3]: complete conversion

The next lines start with results.

- t1/2 at pH = 7.0 [1]: 110 h
SMILES: CC(=O)c1nsc2nc3ccccc3n12 [acetyl, 3-(1-oxoethyl)-1,2,4-thiadiazolo[4,5-a]benzimidazole]

- acid stability [2]: complete decomposition in a few minutes
SMILES: COc1ccc2[nH]c([S+]([O-])Cc3ncc(C)c(OC)c3C)nc2c1 (stereo not shown) [Omeprazole, reference compound]

- t1/2 at pH = 7.0 [1]: 2.4 h
SMILES: c1ccc2c(c1)nc1snc(N3CCOCC3)n12 [morpholino, 3-(4-morpholinyl)-1,2,4-thiadiazolo[4,5-a]benzimidazole]

- t1/2 at pH = 7.0 [1]: 6.7 h
SMILES: CN1CCN(c2nsc3nc4ccccc4n23)CC1 [4-methylpiperazinyl, 3-(4-methyl-1-piperazinyl)-1,2,4-thiadiazolo-[4,5-a]benzimidazole]

- t1/2 at pH = 7.0 [1]: 98 h
SMILES: c1ccc2c(c1)nc1snc(CN3CCOCC3)n12 [morpholinomethyl, 3-(morpholinomethyl)-1,2,4-thiadiazolo[4,5-a]benzimidazole]

- t1/2 at pH = 7.0 [1]: 1.5 h
SMILES: CN(C)c1nsc2nc3ccccc3n12 [Me2 N, 3-(dimethylamino)-1,2,4-thiadiazolo[4,5-a]benzimidazole]
- time after which reaction with phenethyl mercaptan is complete [3]: ≤ 1 min

- recovered starting material after reaction with phenethyl mercaptan ([3]; methanol and 0.1 M hydrochloric acid, room temperature, 51 h): 14.6%
SMILES: COc1c(C)cnc(C(=O)c2nsc3nc4ccccc4n23)c1C [3-[(4-methoxy-3,5-dimethyl-2-pyridyl)oxomethyl]-1,2,4-thiadiazolo[4,5-a]benzimidazole]

- IC50 [6]: 50 µM
SMILES: CN1CCN(c2nsc3nc4ccccc4n23)CC1.Cl.Cl [3-(4-methyl-1-piperazinyl)-1,2,4-thiadiazolo[4,5-a]benzimidazole dihydrochloride]
- inhibition of cAMP stimulated acid secretion [4]: completely inhibited
- inhibition of histamine stimulated acid secretion [5]: completely inhibited

- solubility in water [9]: limited solubility in water
SMILES: COc1ccc2c(c1)nc1snc(C(=O)c3ncc(C)c(OC)c3C)n12 [7-methoxy-3-[(4-methoxy-3,5-dimethyl-2-pyridyl)oxomethyl]-1,2,4-thiadiazolo[4,5-a]benzimidazole]
- acid stability [2]: very stable in acid and was totally recovered after stirring for 48 hours at room temperature
- inhibition of meal-stimulated acid secretion [7]: significant (p<0.05) inhibition
- acid output after 1 h ([7]; 8% peptone stimulated, after 1 h): 20 μmmol/30 min
- inhibition of histamine-stimulated acid secretion [8]: significant (p<0.05) inhibition
- suppression of gastric acid secretion [10]: active in the suppression of gastric acid secretion

From US6093738A, “Proton pump inhibitors” (priority 1997, dated 2000)
